Test results as given in PubChem BioAssay (NCI).
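The compound was tested at five concentrations on cells cultured in 96-well plates, with a 48-hour exposure period. TGI marks complete inhibition of growth.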

Key:
Experiment in all cases: NCI-60 cell line screen, 48 h
[1] = test system: 786-0 renal
[2] = test system: BT-549 breast
[3] = test system: EKVX NSCLC
[4] = test system: HCT-15 colon
[5] = test system: HT29 colon
[6] = test system: IGROV1 ovarian
[7] = test system: LOX IMVI melanoma
[8] = test system: M14 melanoma
[9] = test system: MALME-3M melanoma
[10] = test system: MDA-MB-435
[11] = test system: NCI-H23 lung
[12] = test system: NCI-H460 lung
[13] = test system: OVCAR-4 ovarian
[14] = test system: OVCAR-8 ovarian
[15] = test system: SK-OV-3 ovarian
[16] = test system: T-47D breast
[17] = test system: UO-31 renal
[18] = test system: HL-60(TB) leukemia
[19] = test system: CCRF-CEM leukemia
[20] = test system: CAKI-1 renal

Row | Compound | TGI [1] [µM] | TGI [2] [µM] | TGI [3] [µM] | TGI [4] [µM] | TGI [5] [µM] | TGI [6] [µM] | TGI [7] [µM] | TGI [8] [µM] | TGI [9] [µM] | TGI [10] [µM] | TGI [11] [µM] | TGI [12] [µM] | TGI [13] [µM] | TGI [14] [µM] | TGI [15] [µM] | TGI [16] [µM] | TGI [17] [µM] | TGI [18] [µM] | TGI [19] [µM] | TGI [20] [µM]
1 | C[P+](c1ccccc1)(c1ccc(Cl)cc1)c1ccc(Cl)cc1 | > 100 | 68.3 | 99.3 | > 100 | 24.1 | 21.8 | 32.5 | 34.4 | 19.6 | 18.7 | 31.6 | > 100 | 45.2 | 36.6 | > 100 | 49.3 | > 100 | – | – | –
2 | Cc1cc(S(=O)(=O)Nc2nnc3ccccn23)c(S)cc1Cl | > 100 | > 100 | > 100 | > 100 | > 100 | > 100 | > 100 | > 100 | > 100 | > 100 | > 100 | > 100 | > 100 | > 100 | – | > 100 | > 100 | > 100 | – | –
3 | CCNC1=C(NC(=O)c2ccccc2)C(=O)c2ccccc2C1=O | > 100 | > 100 | – | > 100 | 82.5 | > 100 | – | > 100 | 43 | 19.4 | > 100 | > 100 | > 100 | > 100 | > 100 | > 100 | – | > 100 | > 100 | –
4 | C=CCOCn1cc(F)c(=O)[nH]c1=O | > 100 | > 100 | > 100 | > 100 | > 100 | > 100 | > 100 | > 100 | > 100 | > 100 | > 100 | > 100 | – | > 100 | > 100 | > 100 | > 100 | > 100 | > 100 | > 100
5 | CCOC(=O)c1c(N2CCCC2)[nH]c(=O)c(C(c2ccc(Cl)c([N+](=O)[O-])c2)c2c(O)c(C(=O)OCC)c(N3CCCC3)[nH]c2=O)c1O | > 100 | 51.8 | > 100 | > 100 | – | – | 49.4 | 42.7 | 84.6 | > 100 | 48.9 | > 100 | > 100 | 33.5 | > 100 | > 100 | 66.6 | – | 79.3 | 60.6
6 | Nc1cc2ncnn2c(SCC(=O)N/N=C/C(Br)=C\c2ccccc2)n1 | 36.9 | 44.1 | > 100 | 37.1 | 28 | 24.6 | 45.6 | – | 28.3 | 30.9 | 33.1 | 53.5 | – | 52.3 | – | 9.35 | 32 | 62.4 | > 100 | 37.2
7 | O=C(CC(C(=O)c1ccsc1)c1ccsc1)c1ccsc1 (stereo unspecified) | > 100 | – | > 100 | > 100 | > 100 | > 100 | > 100 | > 100 | > 100 | > 100 | > 100 | > 100 | > 100 | > 100 | > 100 | > 100 | > 100 | > 100 | > 100 | > 100
8 | CC(C)(C)OC(=O)[C@@H]1ON2O[C@H](OC3CCCC3(c3ccccc3)c3ccccc3)C[C@H]3OC(=O)[C@@H]1[C@H]32 (stereo partly specified) | > 100 | > 100 | > 100 | > 100 | > 100 | > 100 | 96.6 | > 100 | – | > 100 | > 100 | > 100 | 54.3 | – | > 100 | > 100 | > 100 | – | > 100 | > 100
9 | CS(=O)(=O)OCCCSCCSCCCOS(C)(=O)=O | > 100 | > 100 | > 100 | > 100 | > 100 | > 100 | > 100 | > 100 | – | > 100 | > 100 | > 100 | > 100 | > 100 | > 100 | > 100 | > 100 | > 100 | > 100 | –
10 | C=CCN1C[C@H](C)N([C@H](c2ccc(C(=O)N(CC)CC)cc2)c2cccc(OC)c2)C[C@H]1C | > 100 | > 100 | > 100 | > 100 | > 100 | > 100 | – | > 100 | 47 | > 100 | > 100 | – | > 100 | > 100 | > 100 | 65.5 | > 100 | 64.9 | – | > 100
11 | O=[N+]([O-])c1ccc2sc(/C=N/c3ccccn3)cc2c1 | > 100 | > 100 | > 100 | > 100 | > 100 | > 100 | > 100 | > 100 | > 100 | > 100 | > 100 | > 100 | – | > 100 | > 100 | 74 | > 100 | > 100 | > 100 | > 100
12 | CO[C@]12S[C@@H]3CCCC[C@@]31C(C)(C)C(=O)N2c1ccccc1 | > 100 | > 100 | > 100 | > 100 | > 100 | > 100 | > 100 | > 100 | > 100 | > 100 | > 100 | > 100 | – | > 100 | 76.8 | > 100 | > 100 | 42.5 | > 100 | > 100
13 | CC(C)OC(=O)[C@H]1ON2O[C@H](O[C@@H]3CCCC[C@H]3c3ccccc3)C([Si](C)(C)c3ccccc3)[C@H]3OC(=O)[C@@H]1C32 (stereo partly specified) | > 100 | > 100 | > 100 | > 100 | > 100 | > 100 | > 100 | > 100 | – | > 100 | > 100 | > 100 | – | > 100 | > 100 | > 100 | > 100 | > 100 | > 100 | > 100
14 | COc1ccccc1/C=C1\S/C(=N/Nc2nc(C)c(C(C)=O)s2)NC1=O | > 100 | – | – | – | > 100 | – | > 100 | > 100 | – | > 100 | > 100 | > 100 | > 100 | > 100 | > 100 | 72.8 | 90.4 | 63.2 | > 100 | > 100
15 | COc1ccc2c(c1)C(OC)C1c3c(cc4c(c3-2)OCO4)CCN1C (stereo unspecified) | > 40.9 | 8.48 | 24.3 | 10.2 | 14.1 | 14.8 | > 32 | 7.84 | 3.97 | 13.1 | 11.1 | 8.83 | 10.3 | 13.9 | 23.1 | > 63.7 | 4.59 | > 20.6 | – | 7.32
16 | CCOC(=O)/C(C(=S)NCc1ccccc1)=C(/N)N1CCCC1 | > 100 | – | > 100 | > 100 | > 100 | > 100 | > 100 | > 100 | > 100 | > 100 | > 100 | > 100 | > 100 | > 100 | – | > 100 | > 100 | > 100 | > 100 | > 100
17 | Nc1ncc(C=O)c(NCC2(CO)CCC2)n1 | > 100 | – | – | > 100 | > 100 | > 100 | > 100 | – | > 100 | > 100 | > 100 | > 100 | > 100 | > 100 | – | 88.9 | > 100 | > 100 | > 100 | 44.3
18 | O=C1CCC2c3ccccc3NCN12 (stereo unspecified) | > 100 | – | > 100 | > 100 | > 100 | > 100 | > 100 | > 100 | > 100 | > 100 | > 100 | > 100 | > 100 | > 100 | > 100 | > 100 | > 100 | > 100 | > 100 | > 100
19 | COC(=O)c1ccc(C)cc1CC1Cc2cccc(C)c2C1=O (stereo unspecified) | > 100 | 87.6 | 13.9 | 12.5 | 6.06 | > 100 | 9.79 | 23.2 | 31.3 | 3.34 | > 100 | 22.7 | 95.8 | 33.5 | 92 | 57.9 | 56.7 | – | 51.3 | > 100
20 | COC1=C2CC(C)CC(OC)C(OC(=O)CN)[C@H](C)/C=C(\C)C(OC(N)=O)C(OC)/C=C\C=C(/C)C(=O)NC(=CC1=O)C2=O (stereo partly specified) | 6.45 | 14.2 | 13.1 | 12.6 | 11.2 | 1.62 | 0.828 | 10.8 | 1.59 | 2.89 | 1.77 | 20.9 | 8.38 | 4.24 | 16.7 | 1.32 | 11.6 | – | – | 17
21 | CCC/C(Cl)=N/OC(NC(=O)OCC)(C(F)(F)F)C(F)(F)F | 31.2 | – | 45 | 40.6 | 47.2 | 30.9 | 35.4 | 32.1 | 29.6 | 34.8 | 61.4 | > 100 | 31.7 | > 100 | – | 66.9 | 33.8 | 48.2 | 87.9 | 35.6
22 | COc1ccc(CCNC(=O)c2ccccc2C2c3ccc(OCc4ccccc4)cc3Oc3cc(OCc4ccccc4)ccc32)cc1OC | > 100 | > 100 | > 100 | > 100 | > 100 | > 100 | > 100 | > 100 | > 100 | > 100 | > 100 | – | > 100 | > 100 | > 100 | > 100 | > 100 | > 100 | – | > 100
23 | CO[C@@]12C[C@@H](C)[C@]34O[C@H]3C[C@]3(C)O[C@]43CC1=C(C)C(=O)O2 | > 100 | > 100 | > 100 | > 100 | > 100 | > 100 | > 100 | > 100 | > 100 | > 100 | > 100 | > 100 | > 100 | > 100 | > 100 | > 100 | > 100 | – | – | > 100
24 | OCCCCn1cc(Cn2ncc3c(NCc4ccccc4)ncnc32)nn1 | > 100 | > 100 | > 100 | > 100 | > 100 | > 100 | > 100 | > 100 | > 100 | > 100 | > 100 | > 100 | > 100 | > 100 | > 100 | > 100 | > 100 | – | > 100 | > 100
25 | O=C(CSCC(=O)N/N=C\c1ccc(O)c(O)c1O)N/N=C\c1ccc(O)c(O)c1O | 4.56 | – | 50.4 | 29.1 | 54.9 | 42.2 | 4.76 | 21.5 | 52.3 | 3.59 | 3.65 | 56.3 | 9.22 | > 100 | > 100 | 76.1 | 34.7 | 49.9 | 4.75 | 37.1
